These results are taken from US8367316B2, “Human gastrointestinal stem cell-derived primary intestinal epithelial cell system and methods of use thereof” (AlfaGene Bioscience, Inc., priority 2009, dated 2013).

What all share (format): cell-based, human
One assay deals with HIPEC monolayers. Briefly: Inulin permeability of HIPEC monolayers grown on TransWell filters, with or without pro-inflammatory cytokines. Conditions: cytokine treatment 24 hrs, 3H-labeled Inulin, +/- standard error. As to the method:
Intestinal stem cell derived primary epithelial cell mono layers were tested for Inulin permeability.
Confluent monolayers of HIPEC cells were grown on transwell membranes in triplicates. Cells were then treated with or without pro-inflammatory cytokines for 24 hrs. ^3H-labeled Inulin was added to the upper chamber. Aliquots of medium retrieved from the upper and lower chambers were counted.
The % amount of inulin activity transported from the upper to the lower chamber was determined. The results are shown in Table 5 below, along with the standard error.

In assay [1] the test system is hGISC derived primary ECs. As to the kind of experiment: Nitric oxide production after immunostimulation, Griess reaction assay. As to conditions: agent alone; LPS (1 μm/ml), IFN-γ (200 u/ml); 24 hours; culture supernatants. The source says:
(§1) Therefore, to gain insight about NO production regulation by intestinal EC, the effects of innate (LPS) and adaptive (IFN-γ) immunostimulatory agents on embodiments of the hGISC cell system derived non-transformed primary epithelial cells (EC) were studied and compared to a colonic adenocarcinoma EC line HT29.
[…] Cell free culture supernatants were collected and analyzed for NO content using a Griess Reaction kit (e.g., Griess Reagent System, Part #TB229) (PROMEGA, Madison, Wis.) in accordance with the manufacturer's instructions.
(§2) In another assay for NO, a macrophage cell line MHS served as a positive control. Cells were cultured with/without LPS (1 μm/ml), IFN-γ (200 u/ml), or in combination for 24 hours. Culture supernatants were analyzed for NO content by Griess reaction assay (as mentioned herein).

Another assay has as its system HT29 cells. Described as above. Conditions: agent alone; LPS (1 μm/ml), IFN-γ (200 u/ml); 24 hours; culture supernatants. Here is the method: as §1, §2
Another assay has as its system HIPEC line (A2J1). As to the kind of experiment: Response to inflammatory mediators, IL-8 read-out. As to conditions: stimulators at various concentrations. Here is the method: Using both IL-8 and MIP-3α read-out procedures, an HIPEC line of the present invention (A2J1) was tested for response to various inflammatory mediators (stimulators). The HIPEC line was compared to a Caco-2 cell line. The following stimulators were used at various concentrations: IL-1β; TNFα; IFNγ; Pam3CSK4 (TLR2); LPS (TLR4); and Flagellin (TLR5).

The test system of a further assay is HIPEC line A2J1. As to the kind of experiment: qPCR of markers for mature phenotype cells in HIPEC line upon cytokine stimulation. As to conditions: 1 ng/ml IL-1b or 25 ng/ml TNFα (24 hrs). Here is the method:
Using qPCR, the HIPEC line was also tested for various markers for mature phenotype cells, including the following cell subtypes: enteroendocrine; Goblet; Paneth; and enterocyte. The following markers were used, with the corresponding cell subtypes in parentheses: Somatostatin (enteroendocrine); Glucagon (enteroendocrine); Lysozyme (Goblet/Paneth); Defensin 5 (Goblet/Paneth); Trefoil factor 3 (Goblet/Paneth); Mucin 2 (Goblet/Paneth); Sucrose isomaltase (enterocyte); Carbonic anhydrase (enterocyte); Cd×2 promoter (enterocyte); and Guanylate cyclase c (enterocyte). Data from these tests supported a Goblet/secretory differentiation profile for the HIPEC line identified as A2J1 (derived from jejunem tissue).

Another assay deals with TLR2. Briefly: Regulation of TLR expression by LPS on hGISC-derived primary epithelial cell line (FIG. 18). As to conditions: LPS stimulation of HIPEC line, preliminary experiment.
Another assay deals with TLR4. The description is as above. Conditions: LPS stimulation of HIPEC line, preliminary experiment.
The next assay has as its system TLR6. The description is as above. As to conditions: LPS stimulation of HIPEC line, preliminary experiment.
The mark [2] stands for this setting: Experiment #1, Medium Only 35.5% +/− 5.3.
Where [3] appears, read: Experiment #2, Medium Only 41.6% +/− 0.96.
[4] abbreviates: Experiment #3, Medium Only 43.6% +/− 1.16.

With “IFN-γ: interferon; adaptive immunostimulatory agent”, the “% amount of inulin activity transported from the upper to the lower chamber” value (“% amount … from the upper to the lower chamber” below) in the assay on HIPEC monolayers (setting [2]) was 36.0% +/− 2.8; in the assay with HIPEC monolayers (setting [3]), 42.6% +/− 2.07; in the assay with HIPEC monolayers (setting [4]), 42.7% +/− 0.30. Further, the NO production entry (in assay [1]; in the assay with HT29 cells) was “neither LPS nor IFN-γ alone affect NO production” throughout. Moreover, the IL-8 response result with HIPEC line (A2J1) is “responsive”.
As for “IL-1β: pro-inflammatory cytokine; interleukin”, the “% amount … from the upper to the lower chamber” value with HIPEC monolayers (setting [2]) turned out to be 43.5% +/− 1.36; in the assay with HIPEC monolayers (setting [3]) it was 50.4% +/− 0.94; with HIPEC monolayers (setting [4]), 54.0% +/− 1.59. Besides, in the assay with HIPEC line A2J1, the “change in phenotype upon stimulation” value was “no change in phenotype”. Besides, in the assay on HIPEC line (A2J1), the IL-8 response result was “responsive”.
As for IL-6: pro-inflammatory cytokine, the figures for the “% amount … from the upper to the lower chamber” value in the assay on HIPEC monolayers (setting [2]) and with HIPEC monolayers (setting [3]) were 36.5% +/− 0.48 and 41.8% +/− 0.59, respectively.
lipopolysaccharide [LPS]: in the assay on TLR2, the TLR2 expression result is given as “upregulated”. Besides, the TLR4 expression entry in the assay with TLR4 is given as “upregulated”. For the same molecule, in the assay with TLR6, the TLR6 expression result is on record as “upregulated”. Also, the NO production result (in assay [1]; in the assay on HT29 cells) was “neither LPS nor IFN-γ alone affect NO production” in each case.
As for tumor necrosis factor alpha [TNF-α], the results for the “% amount … from the upper to the lower chamber” value in the assay on HIPEC monolayers (setting [2]), in the assay on HIPEC monolayers (setting [3]) and in the assay on HIPEC monolayers (setting [4]) were 41.2% +/− 0.66, 46.6% +/− 1.05 and 49.0% +/− 1.95, respectively. In the assay on HIPEC line A2J1, the “change in phenotype upon stimulation” value is reported as “no change in phenotype”. Further, in the assay on HIPEC line (A2J1), the IL-8 response result is on record as “responsive”.

B1: IL-1α: pro-inflammatory cytokine (protein, UniProt P01583 113-271, looked up)
Interleukin-1 alpha: SAPFSFLSNVKYNFMRIIKYEFILNDALNQSIIRANDQYLTAAALHNLDEAVKFDMGAYKSSKDDAKITVILRISKTQLYVTAQDEDQPVLLKEMPEIPKTITGSETNLLFFWETHGTKNYFTSVAHPNLFIATKQDYWVCLAGGPPSITDFQILENQA
Regarding B1, the “% amount … from the upper to the lower chamber” value in the assay with HIPEC monolayers (setting [2]) turned out to be 40.0% +/− 3.6; with HIPEC monolayers (setting [3]), 47.4% +/− 0.59; in the assay with HIPEC monolayers (setting [4]), 50.7% +/− 0.40.
